These results are taken from patent publication US6063803A, “Octahydropyrrolo-[3,4-c]carbazoles useful as analgesic agents” (Ortho-McNeil Pharmaceutical, Inc., priority 1999, dated 2000).

pKi: −log10 of the molar value.

The target in one assay is α1-adrenergic receptor. Nature of the assay: α1-adrenergic receptor binding (3H-prazosin displacement, rat cortex membranes). Also noted: species or system rat (Wistar). As to conditions: 3H-prazosin 0.05 nM, 25° C., 20 min. The source says:
Charles River male Wistar (virus-free) rats were group housed for approximately one week and given food and water (Wayne Lab Blox) ad libitum. Animals were exposed to equal hours(12--12) of dark and light and used at a weight range of 150-280 g (8 to 10 weeks of age). Rats were sacrificed by cervical dislocation and their brains were rapidly excised and immediately placed on ice. The cortex was removed, weighed, and used immediately or frozen on dry ice.
The frozen tissue was homogenized in 20 volumes of HEPES buffered sucrose (10 mM HEPES, 300 mM sucrose, pH 7.5) using a motor driven Teflon pestle/glass homogenizer (all homogenates and solutions were maintained at 4-8° C.). The homogenate was centrifuged at 1000×g for 10 minutes, and the supernatant was recentrifuged at 48,000×g for 10 min. […]
The samples were incubated in a 25° C. water bath for 20 min, harvested on a Brandel Cell Harvester on to Wallac filtermat-B sheets (96 sample format), washed three times with 2 mL cold HEPES-buffer (10 mM, pH 7.5), and dried in a microwave oven. To each sample area 80 ul of Betaplate Scint scintillation fluid (LKB) was added and analyzed on a LKB (Wallac) 1205 BetaPlate liquid scintillation counter.
The data were used to calculate either the % inhibition compared to control binding (a single concentration of test compound is evaluated) or a Ki value (a range of concentrations are tested). […]

Assay [1] is described as follows: rat air-induced writhing (abdominal constriction) assay. It is filed as in vivo, rats. As to conditions: rat air-induced writhing. The protocol:
The analgesic activity was determined in another model using rats as the test animal. The procedure was essentially described by P. VonVoightlander et al. in Air-induced Writhing, a Rapid Broad Spectrum Assay for Analgesics, Drug Dev. Res., 2, 577-81, (1982). The test compound or vehicle was administered p.o. (2 mL/kg) and after 30 min, the animals received an i.p. injection of air (10 mL). The animals were placed into individual observation chambers and observed for 30 min for the occurrence of abdominal constriction as defined above. The percent inhibition of this response was calculated as follows. The % inhibition of response, i.e., % analgesia is equal to the number nonresponding drug-treated animals×100 divided by the number of animals in the group. […] This effect lasted for 2-3 hours.

A further assay has as its target T1, α2-adrenergic receptor (Rattus norvegicus, UniProt P22909).
T1 construct: aliquots of the synaptic membrane fraction, the ligand; from tissue; host or cells: cerebral cortex synaptic membranes of male Wistar rats
T1 sequence (P22909 1-465): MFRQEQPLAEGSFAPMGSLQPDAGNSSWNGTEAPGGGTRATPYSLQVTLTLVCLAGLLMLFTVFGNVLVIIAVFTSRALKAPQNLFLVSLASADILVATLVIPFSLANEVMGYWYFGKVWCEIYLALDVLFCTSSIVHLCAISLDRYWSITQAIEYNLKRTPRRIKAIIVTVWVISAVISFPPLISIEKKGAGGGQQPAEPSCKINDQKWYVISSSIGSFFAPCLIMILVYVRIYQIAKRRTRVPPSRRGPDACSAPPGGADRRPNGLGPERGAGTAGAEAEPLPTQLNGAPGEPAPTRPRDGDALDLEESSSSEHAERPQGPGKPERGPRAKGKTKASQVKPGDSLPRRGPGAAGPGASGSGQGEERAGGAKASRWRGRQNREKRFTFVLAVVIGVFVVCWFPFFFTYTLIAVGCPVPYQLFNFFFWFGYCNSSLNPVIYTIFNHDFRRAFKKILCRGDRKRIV
Put plainly: α2-adrenergic receptor binding (3H-para-aminoclonidine, rat cortex synaptic membranes). Also noted: species or system rat (Wistar). The following applies: 25° C., 20 min. As for the experimental part: The α2 -adrenergic activity of the compounds was determined by the following in vitro assay. Male, Wistar rats (150-250 g, VAF, Charles River, Kingston, N.Y.) were sacrificed by cervical dislocation and their brains removed and immediately placed in ice cold HEPES buffered sucrose. The cortex was dissected out and homogenized in 20 volumes of HEPES sucrose in a Teflon®-glass homogenizer. The homogenate was centrifuged at 1000×g for 10 min, and the resulting supernatant centrifuged at 42,000×g for 10 min. The resulting pellet was resuspended in 30 volumes of 3 mM potassium phosphate buffer, pH 7.5, preincubated at 25° C. for 30 min and recentrifuged. The resulting pellet was resuspended as described above and used for the receptor binding assay. Incubation was performed in test tubes containing phosphate buffer, 2.5 mM MgCl2, aliquots of the synaptic membrane fraction, the ligand ^3 H-para-aminoclonidine and test drug at 25° C. for 20 min. The incubation was terminated by filtration of the tube contents through glass fiber filter sheets. The sheets were washed with 10 mM HEPES buffer and the adhering radioactivity was quantified by liquid scintillation spectrometry.
Dose-response data are analyzed with LIGAND, a nonlinear curve fitting program designed specifically for the analysis of ligand binding data. […]

Assay [2] is described as follows: mouse hot plate assay (48° C.). Type of assay: in vivo, mice. As to conditions: mouse hot plate 48° C. The protocol:
The test was essentially described by N. Eddy and D. Leimbach, Synthetic Analgesics II Dithienylbutenyl- and Dithienylbutylamines, J. Pharmacol. Exp. Ther., 107, 385-93 (1953) and J. O'Callaghan and S. Holtzman, Qualification of the Analgesic Activity of Narcotic Antagonists by a Modified Hot-Plate Procedure, J. Pharmacol. Exp. Ther, 192, 497-505 (1975), with minor modifications. Mice were placed on a heated surface (48° C.) and the time interval (seconds) between placement and a shaking, licking, or tucking of the hind paw was recorded as the predrug latency response. This procedure was repeated 30 minutes after the administration of a test compound (p.o., 10 mL/kg). The percent maximum possible antinociceptive effect (% MPE) was determined using the following formula: % MPE=100×(Test latency-Predrug latency)/(Cutoff time-Predrug Latency), using the predrug latency of each animal and cutoff time established to prevent injury to the animal. The cutoff time was 90s.
The ED50 value and 95% confidence intervals were determined using a computer-assisted linear regression analysis of the dose-response curve, including an analysis of variance test for linearity. Oral dosing of Compound 58 produced an analgesic effect after 15 min. This effect lasted for one hour.

Usually pKi stands for the Ki on a negative log10 scale, so that one unit is a factor of ten. What is called ED50 is the dose at which the effect has come halfway, by size or by number of responders. As to `CN1CC2CCc3[nH]c4ccccc4c3C2C1` (single isomer, unassigned) [Compound 58], the results for the pKi on α1-adrenergic receptor and on α2-adrenergic receptor were 7.21 and 8.03, respectively. Further, the ED50 is 23.1 mg/kg in assay [1] (po, p.o., read-out: ED50) and 14.2 mg/kg in assay [2] (po, 0.5 h, p.o., cutoff 90s, read-out: ED50). Further, the “analgesic effect observed, time after oral dosing” value in assay [1] (oral dosing) worked out at 30 min. The “duration of analgesic effect” value in assay [1] (oral dosing) lay in the range of 2 to 3 h. In assay [2] (oral dosing), the “analgesic effect, time after oral dosing” value turned out to be 15 min.
